Results on four molecules are retold here after ChEMBL document CHEMBL3421604, “Treating pain with somatostatin receptor subtype 4 agonists” (ACS Med Chem Lett, 2015).

Each structure is given as a SMILES string.

Series [1] can be described thus: Metabolic stability in pooled human liver microsomes assessed as half life at 0.1 uM at 37 degC in presence of NADPH by LC-MS/MS method. Format: ADME. For orientation: Liver microsomes are vesicles of endoplasmic reticulum, rich in cytochrome P450 enzymes.
The target in series [2] is Somatostatin receptor type 2 (Homo sapiens, UniProt P30874). The series can be described thus: Displacement of [3-125l-Tyr]-somatostatin-(1 -14) from human recombinant somatostatin 2 receptor expressed in CHO cell membranes incubated for 180 mins.
Somatostatin receptor type 2, sequence (P30874 whole entry): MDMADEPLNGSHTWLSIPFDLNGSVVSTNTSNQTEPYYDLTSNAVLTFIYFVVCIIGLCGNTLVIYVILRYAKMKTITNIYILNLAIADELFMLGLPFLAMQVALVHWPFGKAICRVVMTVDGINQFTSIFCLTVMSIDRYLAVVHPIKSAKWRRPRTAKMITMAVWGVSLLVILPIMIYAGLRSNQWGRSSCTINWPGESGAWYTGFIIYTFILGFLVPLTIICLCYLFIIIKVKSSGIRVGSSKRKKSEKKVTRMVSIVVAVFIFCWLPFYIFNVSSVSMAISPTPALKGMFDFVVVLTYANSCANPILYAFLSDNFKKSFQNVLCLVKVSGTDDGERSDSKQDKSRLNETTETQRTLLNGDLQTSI
Series [3] has as its target Somatostatin receptor type 5 (Homo sapiens, UniProt P35346). The series can be described thus: Displacement of [3-125l-Tyr]-somatostatin-(1 -14) from human recombinant somatostatin 5 receptor expressed in CHO cell membranes incubated for 180 mins.
Series [4] deals with Somatostatin receptor type 3 (Homo sapiens, UniProt P32745). The experiment in a line: Displacement of [3-125l-Tyr]-somatostatin-(1 -14) from human recombinant somatostatin 3 receptor expressed in CHO cell membranes incubated for 180 mins.
Somatostatin receptor type 3, sequence (P32745 whole entry): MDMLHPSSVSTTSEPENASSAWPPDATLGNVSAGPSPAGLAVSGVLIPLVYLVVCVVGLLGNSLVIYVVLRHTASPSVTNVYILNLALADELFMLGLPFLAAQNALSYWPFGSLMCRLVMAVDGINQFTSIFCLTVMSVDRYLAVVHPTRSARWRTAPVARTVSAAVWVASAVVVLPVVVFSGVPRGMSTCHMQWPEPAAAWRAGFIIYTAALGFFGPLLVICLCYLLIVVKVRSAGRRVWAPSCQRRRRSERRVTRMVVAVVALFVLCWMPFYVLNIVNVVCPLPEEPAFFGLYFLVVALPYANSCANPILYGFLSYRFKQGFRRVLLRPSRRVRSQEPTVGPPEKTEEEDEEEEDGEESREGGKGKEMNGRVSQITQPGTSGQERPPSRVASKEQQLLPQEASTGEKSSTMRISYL
For series [5], the target named is Somatostatin receptor type 1 (Homo sapiens, UniProt P30872). The series can be described thus: Displacement of [3-125l-Tyr]-somatostatin-(1 -14) from human recombinant somatostatin 1 receptor expressed in CHO cell membranes incubated for 180 mins.
Somatostatin receptor type 1, sequence (P30872 whole entry): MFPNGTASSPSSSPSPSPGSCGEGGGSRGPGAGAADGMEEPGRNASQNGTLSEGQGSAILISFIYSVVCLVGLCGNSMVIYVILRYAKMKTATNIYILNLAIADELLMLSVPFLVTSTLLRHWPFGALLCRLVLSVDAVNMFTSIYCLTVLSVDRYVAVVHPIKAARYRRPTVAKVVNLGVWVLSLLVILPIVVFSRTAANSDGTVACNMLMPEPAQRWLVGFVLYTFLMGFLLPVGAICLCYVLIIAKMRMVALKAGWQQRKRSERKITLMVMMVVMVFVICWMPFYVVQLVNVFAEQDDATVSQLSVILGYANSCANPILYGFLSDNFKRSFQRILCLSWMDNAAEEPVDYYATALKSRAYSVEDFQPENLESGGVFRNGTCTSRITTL

Somatostatin receptor type 5, sequence (P35346 whole entry): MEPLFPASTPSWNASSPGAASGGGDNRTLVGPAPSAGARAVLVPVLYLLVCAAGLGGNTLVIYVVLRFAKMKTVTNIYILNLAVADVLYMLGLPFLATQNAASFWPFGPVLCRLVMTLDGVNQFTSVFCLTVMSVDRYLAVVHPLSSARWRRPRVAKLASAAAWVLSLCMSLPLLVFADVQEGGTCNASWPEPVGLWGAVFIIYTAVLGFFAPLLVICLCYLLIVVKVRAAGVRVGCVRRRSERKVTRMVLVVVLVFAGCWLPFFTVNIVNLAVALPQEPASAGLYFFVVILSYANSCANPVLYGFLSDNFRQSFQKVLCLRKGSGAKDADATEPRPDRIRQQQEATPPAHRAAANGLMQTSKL

What is called half-life is how long it takes for the measured level to halve. What is called Ki is the dissociation constant of the complex between target and ligand, obtained from inhibition or displacement. For the molecule `Cc1cc2ccccc2c(C(C)(C)NC(=O)[C@H]2[C@@H]3CNC[C@@H]32)n1`, the half-life at 0.1 µM in series [1] was greater than 2.17 h. Besides, the inhibition constant Ki in series [2] is greater than 9.59 µM; in series [3], greater than 9.85 µM.
Take `Cn1nc(C(C)(C)NC(=O)[C@H]2[C@@H]3CNC[C@@H]32)c2ccccc21`: in series [1], the half-life at 0.1 µM was greater than 2.17 h. The Ki in series [2] was greater than 9.6 µM; in series [4] it was greater than 8.62 µM; in series [3] it was greater than 9.86 µM.
Take `CC(C)(NC(=O)[C@H]1[C@@H]2CNC[C@@H]21)c1noc2c(F)cccc12`: the half-life at 0.1 µM in series [1] is greater than 2.17 h. The inhibition constant Ki in series [2] was greater than 9.6 µM; in series [5], greater than 9.09 µM; in series [4] it was greater than 8.6 µM; in series [3], greater than 9.85 µM.
As to `Cc1nc(C(C)(C)NC(=O)[C@H]2[C@@H]3CNC[C@@H]32)c2ccccc2n1`, the half-life at 0.1 µM in series [1] is greater than 2.17 h. For the same molecule, the values for the Ki in series [2], in series [4] and in series [3] were greater than 9.63 µM, greater than 8.71 µM and greater than 9.86 µM, respectively.
